Results published in PubChem BioAssay (NCI).
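Cultured in 96-well plates, cells were exposed to test compound for 48 hours across five concentrations. The concentration for 50% growth inhibition is given as GI50. TGI denotes the concentration required for complete inhibition of growth.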

Columns and labels:
Experiment in all cases: inhibition of tumour cell growth, NCI panel, 48 h
[1] = test system: DU-145 prostate
[2] = test system: HCT-15 colon
[3] = test system: UACC-62 melanoma
[4] = test system: KM12 colon
[5] = test system: HCC-2998 colon
[6] = test system: HOP-62 NSCLC
[7] = test system: NCI-H522 lung
[8] = test system: A498 renal
[9] = test system: SNB-19 CNS
[10] = test system: SK-OV-3 ovarian
[11] = test system: MALME-3M melanoma
[12] = test system: OVCAR-5 ovarian
[13] = test system: NCI-H460 lung
[14] = test system: BT-549 breast
[15] = test system: ACHN renal
[16] = test system: OVCAR-4 ovarian
[17] = test system: RXF 393 renal
[18] = test system: SF-268 CNS
[19] = test system: SN12C renal
[20] = test system: SK-MEL-28 melanoma
[21] = test system: 786-0 renal
[22] = test system: OVCAR-3 ovarian
[23] = test system: U251 CNS
[24] = test system: SF-295 CNS
[25] = test system: RPMI-8226 leukemia
[26] = test system: COLO 205 colon
[27] = test system: IGROV1 ovarian
[28] = test system: HL-60(TB) leukemia
[29] = test system: LOX IMVI melanoma
[30] = test system: OVCAR-8 ovarian
[31] = test system: T-47D breast
[32] = test system: NCI-H226 lung
[33] = test system: UACC-257 melanoma
[34] = test system: SF-539 CNS
[35] = test system: NCI/ADR-RES ovarian
[36] = test system: SK-MEL-5 melanoma
[37] = test system: SW-620 colon
[38] = test system: SNB-75 CNS
[39] = test system: PC-3 prostate
[40] = test system: HOP-92 NSCLC
[41] = test system: NCI-H23 lung
[42] = test system: MDA-MB-435
[43] = test system: UO-31 renal
[44] = test system: HCT-116 colon
[45] = test system: CAKI-1 renal
[46] = test system: SK-MEL-2 melanoma
[47] = test system: A549 NSCLC
[48] = test system: MDA-MB-231 breast
[49] = test system: HT29 colon
[50] = test system: M14 melanoma
[51] = test system: TK-10 renal
[52] = test system: MCF7 breast
[53] = test system: SR leukemia
[54] = test system: K-562 leukemia
[55] = test system: CCRF-CEM leukemia
[56] = test system: HS 578T breast
[57] = test system: EKVX NSCLC
[58] = test system: MOLT-4 leukemia

## CCCCCCCCOC(=O)CC[C@@H](C)[C@H]1CC[C@H]2[C@@H]3[C@H](OC(=O)CCN)C[C@@H]4C[C@H](OC(=O)CCN)CC[C@]4(C)[C@H]3C[C@H](OC(=O)CCN)[C@]12C
[1]
  GI50: 3.4 µM
  TGI: 9.7 µM
[2]
  GI50: 16.4 µM
  TGI: 38.9 µM
[3]
  GI50: 3.45 µM
  TGI: 12.7 µM
[4]
  GI50: 3.04 µM
  TGI: 7.51 µM
[5]
  GI50: 13.8 µM
  TGI: 39 µM
[6]
  GI50: 2.71 µM
  TGI: 7.14 µM
[7]
  GI50: 2.26 µM
  TGI: 4.42 µM
[8]
  GI50: 23.8 µM
  TGI: 48.1 µM
[9]
  GI50: 3.48 µM
  TGI: 13.8 µM
[10]
  GI50: 10.5 µM
  TGI: 27 µM
[11]
  GI50: 2.58 µM
  TGI: 5.86 µM
[12]
  GI50: 3.24 µM
  TGI: 10.1 µM
[13]
  GI50: 3.18 µM
  TGI: 10.6 µM
[14]
  GI50: 20.4 µM
  TGI: 46.9 µM
[15]
  GI50: 15.9 µM
  TGI: 32.2 µM
[16]
  GI50: 6.31 µM
  TGI: 28.5 µM
[17]
  GI50: 9.66 µM
  TGI: 29 µM
[18]
  GI50: 3.34 µM
  TGI: 9.12 µM
[19]
  GI50: 6.62 µM
  TGI: 22.2 µM
[20]
  GI50: 3.52 µM
  TGI: 15.1 µM
[21]
  GI50: 15 µM
  TGI: 37.1 µM
[22]
  GI50: 14.6 µM
  TGI: 35.4 µM
[23]
  GI50: 1.95 µM
  TGI: 3.61 µM
[24]
  GI50: 3.51 µM
  TGI: 15.9 µM
[25]
  GI50: 8.42 µM
  TGI: 33.6 µM
[26]
  GI50: 4.74 µM
  TGI: 20.6 µM
[27]
  GI50: 3.24 µM
  TGI: 9.1 µM
[28]
  GI50: 3.32 µM
  TGI: 11.3 µM
[29]
  GI50: 2.23 µM
  TGI: 4.51 µM
[30]
  GI50: 2.14 µM
  TGI: 4.62 µM
[31]
  GI50: 12.3 µM
  TGI: 39.9 µM
[32]
  GI50: 13 µM
  TGI: 44.8 µM
[33]
  GI50: 3.84 µM
  TGI: 16.5 µM
[34]
  GI50: 3.01 µM
  TGI: 8.77 µM
[35]
  GI50: 17.2 µM
  TGI: 37.8 µM
[36]
  GI50: 19.4 µM
  TGI: 51.7 µM
[37]
  GI50: 1.95 µM
  TGI: 3.93 µM
[38]
  GI50: 3.32 µM
  TGI: 13.6 µM
[39]
  GI50: 7.17 µM
  TGI: 22.4 µM
[40]
  GI50: 2.29 µM
  TGI: 6.74 µM
[41]
  GI50: 10 µM
  TGI: 29.9 µM
[42]
  GI50: 3.96 µM
  TGI: 18.4 µM
[43]
  GI50: 21.9 µM
  TGI: 42 µM
[44]
  GI50: 2.43 µM
  TGI: 5.43 µM
[45]
  GI50: 18 µM
  TGI: 34.6 µM
[46]
  GI50: 4.88 µM
  TGI: 18.7 µM
[47]
  GI50: 10.9 µM
  TGI: 27.1 µM
[48]
  GI50: 2.44 µM
  TGI: 7.9 µM
[49]
  GI50: 2.44 µM
  TGI: 5.79 µM
[50]
  GI50: 4.61 µM
  TGI: 22.9 µM

## O=CNNC(=O)Nc1cccc2ccccc12
[1]
  TGI: > 100 µM
[2]
  TGI: > 100 µM
[3]
  TGI: > 100 µM
[4]
  TGI: > 100 µM
[5]
  TGI: > 100 µM
[6]
  TGI: > 100 µM
[51]
  TGI: > 100 µM
[9]
  TGI: > 100 µM
[10]
  TGI: > 100 µM
[11]
  TGI: > 100 µM
[12]
  TGI: > 100 µM
[13]
  TGI: > 100 µM
[15]
  TGI: > 100 µM
[16]
  TGI: > 100 µM
[52]
  TGI: > 100 µM
[17]
  TGI: > 100 µM
[18]
  TGI: > 100 µM
[19]
  TGI: > 100 µM
[53]
  TGI: > 100 µM
[54]
  TGI: > 100 µM
[20]
  TGI: > 100 µM
[55]
  TGI: > 100 µM
[21]
  TGI: > 100 µM
[23]
  TGI: > 100 µM
[56]
  TGI: > 100 µM
[24]
  TGI: > 100 µM
[25]
  TGI: > 100 µM
[26]
  TGI: > 100 µM
[57]
  TGI: > 100 µM
[27]
  TGI: > 100 µM
[28]
  TGI: > 100 µM
[30]
  TGI: > 100 µM
[31]
  TGI: > 100 µM
[32]
  TGI: > 100 µM
[33]
  TGI: > 100 µM
[34]
  TGI: > 100 µM
[35]
  TGI: > 100 µM
[36]
  TGI: > 100 µM
[37]
  TGI: > 100 µM
[38]
  TGI: > 100 µM
[58]
  TGI: > 100 µM
[41]
  TGI: > 100 µM
[42]
  TGI: > 100 µM
[43]
  TGI: > 100 µM
[44]
  TGI: > 100 µM
[47]
  TGI: > 100 µM
[48]
  TGI: > 100 µM
[49]
  TGI: > 100 µM
[50]
  TGI: > 100 µM
